From patent US4939175A, “Use of N,N-dimethyl-1-[1-(4-chlorophenyl)cyclobutyl]-3-methylbutylamine” (priority 1988, dated 1990)

Columns and labels:
[1] = test system: depletion of norepinephrine induced by 6-hydroxydopamine in rat heart; assay: Depletion of norepinephrine induced by 6-hydroxydopamine in rat heart; assay type: in vivo, Std: Wistar male rats; conditions: 6-hydroxydopamine 20 mg/kg i.p., control 20 ± 4, non-treatment 425 ± 49, **p < 0.01
Protocol: Effect of the test samples on the depletion of norepinephrine induced by 6-hydroxydopamine in rat heart.
The test sample was administered orally to Std: Wistar male rats and after 30 minutes, 6-hydroxydopamine (20 mg/kg) was injected intraperitoneally.
At 16 hours after injection of 6-hydroxydopamine, the rats were killed. The whole heart was rapidly removed and homogenized in 0.05M perchloric acid with isoproterenol (10 mg/ml) as an internal standard. The homogenate was centrifuged and then the amount of norepinephrine in the supernatant was determined by means of high performance liquid chromatography with electrochemical detection.
Desipramine was used as the reference drug and distilled water was used as control sample.

[2] = test system: circling behavior in rats with unilateral substantia nigra lesions; assay: Circling behavior in rats with unilateral substantia nigra lesions; assay type: in vivo, Std: Wistar male rats; conditions: 2 hours after, control 0.1 ± 0.4, **p < 0.01
Protocol: Effect of the test samples on circling behavior in rats with unilateral substantia nigra lesions
Std: Wistar male rats (8 heads/group) were used. The rat with unilateral substantia nigra lesions was made by injecting 8 μg/4 μl of 6-hydroxydopamine to the right side of substantia nigra.
The test sample was administered orally to the rat. At 2 hours later, the number of circling behavior per 10 minutes was counted.
Amantadine was used as the reference drug and distilled water was used as control sample.

[3] = test system: inhibition of conditioned avoidance response induced by reserpine in rats; assay: Inhibition of conditioned avoidance response induced by reserpine in rats; assay type: in vivo, Std-Wistar male rats
Protocol: Effect of the test samples on the inhibition of conditioned avoidance response induced by reserpine in rats
Std-Wistar male rats (8 to 9 week age) weighing of 270 to 300 g were fed under the conditions of 23±2° C., 60±10% R.H. and artificial lighting from 7 AM to 7 PM for a week, and then subjected to the test.
The test was carried out by using a shuttle box. The shuttle box used herein was a rectangular box, which was equipped with a buzzer for conditioned stimulus at the upper part and grids of 2 mm in diameter, for non-conditioned stimulus, at intervals of 1 cm on the floor, and divided into two equal sized compartments by a hurdle of 5 cm in height.
The schedule for inducing the conditioned avoidance response was controlled by a computer, and all the observed results of avoidance or escape response were recorded automatically.
The avoidance condition was carried out as follows:
After the conditioned stimulus of the buzzer with sound signal for 5 seconds, the non-conditioned stimulus of the foot shock was given for 5 seconds to rats. Each stimulus was stopped immediately, if the rat jumped over the hurdle to the other compartment during the conditioned or non-conditioned stimulus.
The above-mentioned rats were put on the trials for 25 times. Then the rats were given reserpine (1 mg/kg, intraperitoneally). The rats were tested for 15 times at the time of 18 to 20 hours after the reserpine administration, and then they were divided into several groups ([…]).
The test sample was dissolved in distilled water and administered orally to each group at 24 to 26 hours after the reserpine administration. For reference, distilled water as control sample, and amitriptyline and amantadine as test drugs were used.
At one hour after the test sample administration, the rats were put on the trials for 25 times and the conditioned avoidance responce was compared between the control group (distilled water administration), the test compound-administered group and the test drug-administered groups.

Q: For `CC(C)CC(N(C)C)C1(c2ccc(Cl)cc2)CCC1.Cl` (centres unmarked) [Test compound, N,N-dimethyl-1-[1-(4-chlorophenyl)cyclobutyl]3-methylbutylamine hydrochloride], which “Amount of Norepinephrine” value ([1]; 0.625 mg/kg oral) is on record?
A: 169 ± 34 ng/g

Q: And the “Amount of Norepinephrine” value ([1]; 1.25 mg/kg oral)?
A: 247 ± 49 ng/g

Q: What about the “Amount of Norepinephrine” value ([1]; 2.5 mg/kg oral) of the same molecule?
A: 306 ± 27 ng/g

Q: What about the “Number of circling behavior per 10 min.” value ([2]; 3 mg/kg oral) of the same molecule?
A: 3.0 ± 2.9 per 10 min.

Q: And the “Number of circling behavior per 10 min.” value ([2]; 10 mg/kg oral)?
A: 5.1 ± 4.4 per 10 min.

Q: What about the “Conditioned avoidance response 1 hour after administration of the test sample” value ([3]; 10 mg/kg oral, reserpine 1 mg/kg, control 2) of the same molecule?
A: 82%

Q: What about the “Conditioned avoidance response before administration of reserpine” value ([3]; baseline before test sample, 10 mg/kg group) of the same molecule?
A: 90%

Q: And the “Conditioned avoidance response 18 to 20 hours after administration of reserpine” value ([3]; reserpine 1 mg/kg i.p., before test sample, 10 mg/kg group)?
A: 2%
